In patent publication US20230057133A1, “COMPOUND FOR THE TREATMENT AND PREVENTION OF CENTRAL NERVOUS SYSTEM DISORDERS” (ABAXYS THERAPEUTICS, priority 2019, published 2023):

What was measured:
Format in all cases: in vivo, zebrafish
zebra fish larvae [1] = test: Model of epileptic activity: pentetrazole-induced locomotor activity of zebra fish larvae
Experimental: (§1) Compound was tested in zebrafish paradigms reaction to environmental stimuli, epileptic activity and dopaminergic hyperactivity. Zebrafish used in present studies were raised in regular conditions of housing in tanks of appropriate size and circadian rhythm (12:12 photoperiod, light/darkness). The aqueous medium used for the maintenance and experimental conditions was Instant Ocean®. The water maintained between at 27° C. or 29° C., pH between 7.2-7.5 and a conductivity value between 480-520 μS. Zebrafish embryos were placed in sterile petri dishes before being transferred to plates after the hatching.
(§2) For experimental studies, larvae of up to 5 dpf were placed in flat bottom 96-well plates. At the treatment time, the medium was replaced by 150 μL fresh medium. Pentetrazole (PTZ) and/or Cmpd1 (treatment), or vehicle (control) were added (up to 210-240 μL) to the wells followed by video recording.
(§3) Locomotion of larvae was recorded using Noldus daniovisio system equipped with infrared light detection. Ethovision XT15 software controlled the temperature of plate (28° C.) and chamber light conditions. The experimental recording was done with a cycle of light period (20 min) followed by dark period (45 min). After recording data were analysed using Ethovision XT15 software package. The distance moved by larvae was calculated for each period of 2 min recording (FIGS. 1 to 6 and 10) or as accumulated value of distance at 2 min (initiation), at 4 min at 10 min and at 20 min (switch to darkness) or at 60 min (end of recording) (FIGS. 7 and 8).
(§4) All compounds were dissolved in medium or medium containing DMSO at indicated concentrations.

zebra fish larvae [2] = test: Model of hyperdopaminergic activity: apomorphine-induced locomotor activity of zebra fish larvae
Experimental: as §1, §2, §3, §4
The same methods as disclosed in Example 1 ware carried out for Example 2, except that the pentetrazole was replaced by apomorphine (APO).

zebra fish larvae [3] = test: Locomotion of zebra fish larvae treated with compound alone, light period followed by dark period; conditions: Cmpd1 100 μM alone versus vehicle; FIGS. 5 and 10
Experimental: as §1, §2
as §3, with “Ethovision XT15 software controlled the temperature of plate (28° C.) and chamber light conditions. The experimental recording was done with a cycle of light period (20 min) followed by dark period (45 min).” left out, “8). […]” for “8).”

With `C1CCc2nnnn2CC1` [pentetrazole, reference compound] the “locomotor activity (distance moved) versus vehicle” value (zebra fish larvae [1]; pentetrazole 10 mM alone, larvae up to 5 dpf, light 20 min then dark 45 min, FIGS. 1, 2, 6) was “clear increase of locomotor activity in both light and dark conditions”.
For `CN1CCc2cccc3c2[C@H]1Cc1ccc(O)c(O)c1-3` [apomorphine, reference compound], the “locomotor activity (distance moved) versus vehicle” value (zebra fish larvae [2]; apomorphine alone, 75 μM (FIG. 3) or 55 μM (FIG. 8), light conditions) was “clear increase of locomotor activity in light conditions”.
In the case of `CCOC(=O)C1CCN(C(=O)[C@H](C)N(c2ccc(C)cc2)S(C)(=O)=O)CC1` [Cmpd1, ethyl 1-(N-(methylsulfonyl)-N-(p-tolyl)alanyl)piperidine-4-carboxylate], the “locomotion level compared with vehicle treated zebra fish” value (zebra fish larvae [2]; FIG. 5 and FIGS. 9 and 10) is reported as “stabilizes locomotion to levels close to normal locomotion”, the “conclusion of the hyperdopaminergic activity model” value (zebra fish larvae [2]; apomorphine model) is reported as “stabilizer of the hyperdopaminergic activity” and the “locomotor activity induced by apomorphine alone (distance moved)” value (zebra fish larvae [2]; co-treatment Cmpd1 100 μM + apomorphine 55 μM, FIG. 9) is reported as “decrease of the locomotor activity”. For the same compound, the “locomotor activity induced by apomorphine alone (distance moved)” value (zebra fish larvae [2]; co-treatment Cmpd1 100 μM + apomorphine 75 μM, FIG. 4) was “decrease of the locomotor activity”, the “apomorphine-induced locomotion activity, time course” value (zebra fish larvae [2]; first period of the assay, up to ~20 min, FIG. 9) was “reduces apomorphine-induced locomotion activity strongly” and the “locomotion activity and peak due to change to dark condition” value (zebra fish larvae [3]) was “maintains a low level of locomotion activity suppressing also the peak due to change to dark condition”. For the same compound, the “locomotion level compared with vehicle treated zebra fishes” value (zebra fish larvae [1]; Cmpd1 100 μM, FIG. 2 open circles and FIG. 7) was “stabilizes locomotion to levels close to normal locomotion”, the “locomotor activity induced by pentetrazole alone (distance moved)” value (zebra fish larvae [1]; co-treatment Cmpd1 100 μM + pentetrazole 10 mM, FIG. 2 and FIG. 7) was “decrease of the locomotor activity” and the “conclusion of the epileptic activity model” value (zebra fish larvae [1]; pentetrazole model, Cmpd1 100 μM) was “anti-epileptic activity”.
